Values of other authors as cited in patent publication US20150101082A1, “PROCESSING SEEDS BY COLD PLASMA TREATMENT TO REDUCE AN APPARENT CONTACT ANGLE OF SEEDS COAT SURFACE” (priority 2012, published 2015).

Tests used:
mice [1] = details: inhalation, 7 hours
rats = details: oral
mice [2] = details: oral

Structure (SMILES) | LC50 (mice [1]) [ppm] | LD50 (rats) [mg/kg] | LD50 (mice [2]) [mg/kg]
Nc1ccccc1 [Aniline] | 175 |  | 
NN [Hydrazine] |  | ~60 | ~60
